What all share (format): cell-based
One test has as its target T1, STAT3 (Homo sapiens, UniProt P40763).
T1 construct: plasmid pSTAT3-TA-luc), which contains a stably operating STAT3 promoter; endogenous in cells
The test is described as follows: STAT3 reporter gene assay (luciferase), LNCaP stable cell line (pSTAT3-TA-luc), IL-6 stimulation. The method in brief:
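Cytotoxicity was run on a duplicate plate with CellTiter-Glo, while the other plate gave luciferase read-outs from lysed LNCaP pSTAT3-TA-luc reporter cells. Cells were treated with graded compound concentrations plus IL-6 (10 ng/mL final) for 24–48 h in 3% DCC-FBS medium. Unstimulated and stimulated wells served as negative and positive controls.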

Another test relates to MDA-MB-231. In words: Cell growth inhibition assay, breast cancer cell line MDA-MB-231. As to conditions: Homo sapiens; MDA-MB-231 breast cancer cell line, 5,000 cells/well.
The next test concerns LNCaP. The test is described as follows: Cell growth inhibition assay, prostate cancer cell line LNCaP (medium with 10 ng/mL IL-6). Conditions: Homo sapiens, medium supplemented with 10 ng/mL of IL-6, 10,000 cells/well.

Structures are written as SMILES. Where only a bound is given, the exact number is not on record here.

T1 sequence (P40763 whole entry): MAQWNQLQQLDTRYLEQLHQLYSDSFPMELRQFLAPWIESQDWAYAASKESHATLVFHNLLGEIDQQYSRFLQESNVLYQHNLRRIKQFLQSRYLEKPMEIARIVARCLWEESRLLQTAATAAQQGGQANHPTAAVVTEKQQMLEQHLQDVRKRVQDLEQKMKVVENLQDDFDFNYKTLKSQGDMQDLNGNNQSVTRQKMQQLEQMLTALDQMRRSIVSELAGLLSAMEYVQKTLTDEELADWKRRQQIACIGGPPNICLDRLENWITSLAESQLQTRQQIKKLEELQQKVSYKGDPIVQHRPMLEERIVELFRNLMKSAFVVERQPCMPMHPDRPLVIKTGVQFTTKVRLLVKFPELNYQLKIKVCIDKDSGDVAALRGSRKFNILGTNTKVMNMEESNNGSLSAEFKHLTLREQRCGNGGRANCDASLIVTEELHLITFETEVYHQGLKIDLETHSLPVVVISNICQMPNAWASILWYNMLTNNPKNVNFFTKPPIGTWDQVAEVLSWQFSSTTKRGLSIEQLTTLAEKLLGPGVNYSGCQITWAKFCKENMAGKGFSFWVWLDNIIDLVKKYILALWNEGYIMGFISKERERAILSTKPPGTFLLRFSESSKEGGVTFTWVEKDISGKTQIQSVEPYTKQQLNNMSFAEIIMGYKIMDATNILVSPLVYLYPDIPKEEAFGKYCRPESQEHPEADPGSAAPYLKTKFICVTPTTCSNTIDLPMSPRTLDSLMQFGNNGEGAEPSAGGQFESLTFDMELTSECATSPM

For the compound `CNC(=O)c1cc(NC(=O)c2cc3ccc(NS(C)(=O)=O)cc3[nH]2)cc(-c2ccc(F)cc2F)c1` [Example 318, N-(2′,4′-difluoro-5-(methylcarbamoyl)-[1,1′-biphenyl]-3-yl)-6-(methylsulfonamido)-1H-indole-2-carboxamide], the IC50 at STAT3 was 8.1 µM; in the test with MDA-MB-231 it was > 10 µM; in the test with LNCaP, > 10 µM.

On to `CN(C)C(=O)c1cc(NC(=O)c2cc3ccc(NS(C)(=O)=O)cc3[nH]2)cc(-c2ccc(F)cc2F)c1` [Example 319, N-(5-(dimethylcarbamoyl)-2′,4′-difluoro-[1,1′-biphenyl]-3-yl)-6-(methylsulfonamido)-1H-indole-2-carboxamide], for which the IC50 on STAT3, with MDA-MB-231 and in the test on LNCaP was > 10 µM throughout.

As for `CS(=O)(=O)Nc1ccc2cc(C(=O)Nc3cc(C(=O)N4CCCCC4)cc(-c4ccc(F)cc4F)c3)[nH]c2c1` [Example 320, N-(2′,4′-difluoro-5-(piperidine-1-carbonyl)-[1,1′-biphenyl]-3-yl)-6-(methylsulfonamido)-1H-indole-2-carboxamide], the IC50 was 6.2 µM against STAT3, > 10 µM with MDA-MB-231 and > 10 µM in the test with LNCaP.

Consider `CS(=O)(=O)Nc1ccc2cc(C(=O)Nc3cc(C(=O)N4CCOCC4)cc(-c4ccc(F)cc4F)c3)[nH]c2c1` [Example 321, N-(2′,4′-difluoro-5-(morpholine-4-carbonyl)-[1,1′-biphenyl]-3-yl)-6-(methylsulfonamido)-1H-indole-2-carboxamide], for which the IC50 against STAT3 was 8.2 µM; with MDA-MB-231, > 10 µM; with LNCaP, > 10 µM.

For `CS(=O)(=O)Nc1ccc2cc(C(=O)Nc3cc(-c4ccc(F)nc4)cc(-c4ccc(F)cc4F)c3)[nH]c2c1` [Example 349, N-(2′,4′-difluoro-5-(6-fluoropyridin-3-yl)-[1,1′-biphenyl]-3-yl)-6-(methylsulfonamido)-1H-indole-2-carboxamide], the IC50 is 0.48 µM on STAT3, 0.32 µM in the test with MDA-MB-231 and 2.3 µM with LNCaP.

For `CC(C)(C)OC(=O)n1cccc1-c1cc(NC(=O)c2cc3ccc(NS(C)(=O)=O)cc3[nH]2)cc(-c2ccc(F)cc2F)c1` [Example 350, tert-butyl 2-(2′,4′-difluoro-5-(6-(methylsulfonamido)-1H-indole-2-carboxamido)-[1,1′-biphenyl]-3-yl)-1H-pyrrole-1-carboxylate], the results for the IC50 on STAT3, in the test with MDA-MB-231 and with LNCaP were 1.5 µM, 2.3 µM and 6.5 µM, respectively.

`CS(=O)(=O)Nc1ccc2cc(C(=O)Nc3cc(-c4cc[nH]n4)cc(-c4ccc(F)cc4F)c3)[nH]c2c1` [Example 351, N-(2′,4′-difluoro-5-(1H-pyrazol-3-yl)-[1,1′-biphenyl]-3-yl)-6-(methylsulfonamido)-1H-indole-2-carboxamide]: the IC50 against STAT3 was 0.3 µM; in the test with MDA-MB-231 it was 9.9 µM; with LNCaP, > 10 µM.

As to `CS(=O)(=O)Nc1ccc2cc(C(=O)Nc3cc(-c4ccc[nH]4)cc(-c4ccc(F)cc4F)c3)[nH]c2c1` [Example 352, N-(2′,4′-difluoro-5-(1H-pyrrol-2-yl)-[1,1′-biphenyl]-3-yl)-6-(methylsulfonamido)-1H-indole-2-carboxamide], the IC50 came out at 0.82 µM against STAT3, 2.4 µM with MDA-MB-231 and 7.6 µM with LNCaP.

As to `Cn1cccc1-c1cc(NC(=O)c2cc3ccc(NS(C)(=O)=O)cc3[nH]2)cc(-c2ccc(F)cc2F)c1` [Example 353, N-(2′,4′-difluoro-5-(1-methyl-1H-pyrrol-2-yl)-[1,1′-biphenyl]-3-yl)-6-(methylsulfonamido)-1H-indole-2-carboxamide], the IC50 at STAT3 turned out to be 0.76 µM; with MDA-MB-231, 0.44 µM; with LNCaP, 2.4 µM.

Regarding `CS(=O)(=O)Nc1ccc2cc(C(=O)Nc3cc(-c4cccs4)cc(-c4ccc(F)cc4F)c3)[nH]c2c1` [Example 354, N-(2′,4′-difluoro-5-(thiophen-2-yl)-[1,1′-biphenyl]-3-yl)-6-(methylsulfonamido)-1H-indole-2-carboxamide], the 50% inhibitory concentration (IC50) against STAT3 turned out to be 0.33 µM; in the test with MDA-MB-231 it was 0.71 µM; in the test with LNCaP, 5.7 µM.

With `CS(=O)(=O)Nc1ccc2cc(C(=O)Nc3cc(-c4ccsc4)cc(-c4ccc(F)cc4F)c3)[nH]c2c1` [Example 355, N-(2′,4′-difluoro-5-(thiophen-3-yl)-[1,1′-biphenyl]-3-yl)-6-(methylsulfonamido)-1H-indole-2-carboxamide], the values for the IC50 against STAT3, in the test with MDA-MB-231 and with LNCaP were 0.21 µM, 0.28 µM and 1.8 µM, respectively.

For the compound `CS(=O)(=O)Nc1ccc2cc(C(=O)Nc3cc(-c4ccncc4)cc(-c4ccc(F)cc4F)c3)[nH]c2c1` [Example 356, N-(2′,4′-difluoro-5-(pyridin-4-yl)-[1,1′-biphenyl]-3-yl)-6-(methylsulfonamido)-1H-indole-2-carboxamide], the IC50 at STAT3 came out at 3.6 µM; in the test with MDA-MB-231, 3.3 µM; with LNCaP it was 9.9 µM.

Consider `CS(=O)(=O)Nc1ccc2cc(C(=O)Nc3cc(-c4cccnc4)cc(-c4ccc(F)cc4F)c3)[nH]c2c1` [Example 357, N-(2′,4′-difluoro-5-(pyridin-3-yl)-[1,1′-biphenyl]-3-yl)-6-(methylsulfonamido)-1H-indole-2-carboxamide], for which the IC50 at STAT3 is 1.7 µM; in the test on MDA-MB-231, 1.2 µM; with LNCaP, 6.6 µM.

Take `CS(=O)(=O)Nc1ccc2cc(C(=O)Nc3cc(-c4ccc(C(F)(F)F)nc4)cc(-c4ccc(F)cc4F)c3)[nH]c2c1` [Example 358, N-(2′,4′-difluoro-5-(6-(trifluoromethyl)pyridin-3-yl)-[1,1′-biphenyl]-3-yl)-6-(methylsulfonamido)-1H-indole-2-carboxamide]: the IC50 against STAT3 amounted to 1.7 µM; with MDA-MB-231, 1.2 µM; in the test with LNCaP it was 8 µM.

For `CS(=O)(=O)Nc1ccc2cc(C(=O)Nc3cc(-c4ccc(C#N)nc4)cc(-c4ccc(F)cc4F)c3)[nH]c2c1` [Example 359, N-(5-(6-cyanopyridin-3-yl)-2′,4′-difluoro-[1,1′-biphenyl]-3-yl)-6-(methylsulfonamido)-1H-indole-2-carboxamide], the IC50 is > 10 µM on STAT3, 2.6 µM with MDA-MB-231 and > 10 µM with LNCaP.

Regarding `CS(=O)(=O)Nc1ccc2cc(C(=O)Nc3cc(-c4cncnc4)cc(-c4ccc(F)cc4F)c3)[nH]c2c1` [Example 360, N-(2′,4′-difluoro-5-(pyrimidin-5-yl)-[1,1′-biphenyl]-3-yl)-6-(methylsulfonamido)-1H-indole-2-carboxamide], the figures for the IC50 on STAT3, in the test with MDA-MB-231 and in the test with LNCaP were > 10 µM, 1.8 µM and > 10 µM, respectively.

For `CS(=O)(=O)Nc1ccc2cc(C(=O)Nc3cc(-c4cnc(N)nc4)cc(-c4ccc(F)cc4F)c3)[nH]c2c1` [Example 361, N-(5-(2-aminopyrimidin-5-yl)-2′,4′-difluoro-[1,1′-biphenyl]-3-yl)-6-(methylsulfonamido)-1H-indole-2-carboxamide], the IC50 against STAT3, in the test with MDA-MB-231 and in the test with LNCaP was > 10 µM throughout.

In the case of `CS(=O)(=O)Nc1ccc2cc(C(=O)Nc3cc(-c4ccc(F)cc4F)cc(-c4ccc(F)cc4F)c3)[nH]c2c1` [Example 362, 6-(methylsulfonamido)-N-(2,2″,4,4″-tetrafluoro-[1,1′:3′,1″-terphenyl]-5′-yl)-1H-indole-2-carboxamide], the IC50 against STAT3 came out at 0.72 µM; in the test with MDA-MB-231 it was 0.69 µM; in the test on LNCaP, 2.6 µM.

For the origin of these results see patent US10562912B2 (C&C Research Laboratories, priority 2013, dated 2020).
